Numbers after ± are expanded uncertainties.
Assay: xn = mol fraction of the nth substance listed
Details: Liquid, Vibrating tube method

## CCCCCCCCCCC [undecane] + CCCCCCC
352.96 K, 20000 kPa, x2 = 0.05
  mass density: 712.1 ± 0.4 kg/m3
352.96 K, 20000 kPa, x2 = 0.5063
  mass density: 690.9 ± 0.4 kg/m3
352.96 K, 21000 kPa, x2 = 0.05
  mass density: 712.9 ± 0.4 kg/m3
352.96 K, 21001 kPa, x2 = 0.5063
  mass density: 691.8 ± 0.4 kg/m3
352.96 K, 22001 kPa, x2 = 0.05
  mass density: 713.8 ± 0.4 kg/m3
352.96 K, 22050 kPa, x2 = 0.5063
  mass density: 692.7 ± 0.4 kg/m3
352.96 K, 23000 kPa, x2 = 0.05
  mass density: 714.6 ± 0.4 kg/m3
352.96 K, 23000 kPa, x2 = 0.5063
  mass density: 693.6 ± 0.4 kg/m3
352.96 K, 24000 kPa, x2 = 0.05
  mass density: 715.4 ± 0.4 kg/m3
352.96 K, 24000 kPa, x2 = 0.5063
  mass density: 694.5 ± 0.5 kg/m3
352.96 K, 25000 kPa, x2 = 0.05
  mass density: 716.2 ± 0.4 kg/m3
352.96 K, 25000 kPa, x2 = 0.5063
  mass density: 695.3 ± 0.5 kg/m3
352.97 K, 1000 kPa, x2 = 0.7482
  mass density: 654 ± 0.3 kg/m3
352.97 K, 2000 kPa, x2 = 0.7482
  mass density: 655.3 ± 0.3 kg/m3
352.97 K, 3000 kPa, x2 = 0.7482
  mass density: 656.6 ± 0.3 kg/m3
352.97 K, 4000 kPa, x2 = 0.7482
  mass density: 657.8 ± 0.3 kg/m3
352.97 K, 5000 kPa, x2 = 0.7482
  mass density: 659.1 ± 0.3 kg/m3
352.97 K, 6000 kPa, x2 = 0.7482
  mass density: 660.3 ± 0.3 kg/m3
352.97 K, 7000 kPa, x2 = 0.7482
  mass density: 661.5 ± 0.3 kg/m3
352.97 K, 8000 kPa, x2 = 0.7482
  mass density: 662.7 ± 0.3 kg/m3
352.97 K, 9000 kPa, x2 = 0.7482
  mass density: 663.9 ± 0.3 kg/m3
352.97 K, 10000 kPa, x2 = 0.7482
  mass density: 665 ± 0.3 kg/m3
352.97 K, 11000 kPa, x2 = 0.7482
  mass density: 666.1 ± 0.4 kg/m3
352.97 K, 12000 kPa, x2 = 0.7482
  mass density: 667.2 ± 0.4 kg/m3
352.97 K, 13000 kPa, x2 = 0.7482
  mass density: 668.3 ± 0.4 kg/m3
352.97 K, 14000 kPa, x2 = 0.7482
  mass density: 669.4 ± 0.4 kg/m3
352.97 K, 15000 kPa, x2 = 0.7482
  mass density: 670.5 ± 0.4 kg/m3
352.97 K, 16000 kPa, x2 = 0.7482
  mass density: 671.5 ± 0.4 kg/m3
352.97 K, 17000 kPa, x2 = 0.7482
  mass density: 672.5 ± 0.4 kg/m3
352.97 K, 18000 kPa, x2 = 0.7482
  mass density: 673.5 ± 0.4 kg/m3
352.97 K, 19000 kPa, x2 = 0.7482
  mass density: 674.5 ± 0.4 kg/m3
352.97 K, 20000 kPa, x2 = 0.7482
  mass density: 675.5 ± 0.4 kg/m3
352.97 K, 21000 kPa, x2 = 0.7482
  mass density: 676.5 ± 0.4 kg/m3
352.97 K, 22000 kPa, x2 = 0.7482
  mass density: 677.4 ± 0.5 kg/m3
352.97 K, 23000 kPa, x2 = 0.7482
  mass density: 678.3 ± 0.5 kg/m3
352.97 K, 24000 kPa, x2 = 0.7482
  mass density: 679.2 ± 0.5 kg/m3
352.97 K, 25000 kPa, x2 = 0.7482
  mass density: 680.2 ± 0.5 kg/m3
352.99 K, 1015 kPa, x2 = 0.2346
  mass density: 685.9 ± 0.3 kg/m3
352.99 K, 2016 kPa, x2 = 0.2346
  mass density: 687 ± 0.3 kg/m3
352.99 K, 3016 kPa, x2 = 0.2346
  mass density: 688.1 ± 0.3 kg/m3
352.99 K, 4017 kPa, x2 = 0.2346
  mass density: 689.2 ± 0.3 kg/m3
352.99 K, 5018 kPa, x2 = 0.2346
  mass density: 690.2 ± 0.3 kg/m3
352.99 K, 6019 kPa, x2 = 0.2346
  mass density: 691.3 ± 0.3 kg/m3
352.99 K, 7020 kPa, x2 = 0.2346
  mass density: 692.3 ± 0.3 kg/m3
352.99 K, 8020 kPa, x2 = 0.2346
  mass density: 693.3 ± 0.3 kg/m3
352.99 K, 9021 kPa, x2 = 0.2346
  mass density: 694.4 ± 0.3 kg/m3
352.99 K, 10022 kPa, x2 = 0.2346
  mass density: 695.3 ± 0.3 kg/m3
352.99 K, 11022 kPa, x2 = 0.2346
  mass density: 696.3 ± 0.3 kg/m3
352.99 K, 12023 kPa, x2 = 0.2346
  mass density: 697.3 ± 0.3 kg/m3
352.99 K, 13024 kPa, x2 = 0.2346
  mass density: 698.2 ± 0.4 kg/m3
352.99 K, 14025 kPa, x2 = 0.2346
  mass density: 699.2 ± 0.4 kg/m3
352.99 K, 15026 kPa, x2 = 0.2346
  mass density: 700.1 ± 0.4 kg/m3
352.99 K, 16027 kPa, x2 = 0.2346
  mass density: 701 ± 0.4 kg/m3
352.99 K, 17028 kPa, x2 = 0.2346
  mass density: 701.9 ± 0.4 kg/m3
352.99 K, 18030 kPa, x2 = 0.2346
  mass density: 702.8 ± 0.4 kg/m3
352.99 K, 19030 kPa, x2 = 0.2346
  mass density: 703.7 ± 0.4 kg/m3
352.99 K, 20031 kPa, x2 = 0.2346
  mass density: 704.5 ± 0.4 kg/m3
352.99 K, 21066 kPa, x2 = 0.2346
  mass density: 705.4 ± 0.4 kg/m3
352.99 K, 22068 kPa, x2 = 0.2346
  mass density: 706.3 ± 0.4 kg/m3
352.99 K, 23071 kPa, x2 = 0.2346
  mass density: 707.1 ± 0.4 kg/m3
352.99 K, 24073 kPa, x2 = 0.2346
  mass density: 707.9 ± 0.4 kg/m3
352.99 K, 25076 kPa, x2 = 0.2346
  mass density: 708.7 ± 0.4 kg/m3
362.87 K, 1001 kPa, x2 = 0.9511
  mass density: 628.1 ± 0.3 kg/m3
362.87 K, 2000 kPa, x2 = 0.9511
  mass density: 629.7 ± 0.3 kg/m3
362.87 K, 3000 kPa, x2 = 0.9511
  mass density: 631.1 ± 0.3 kg/m3
362.87 K, 4000 kPa, x2 = 0.9511
  mass density: 632.6 ± 0.3 kg/m3
362.87 K, 5000 kPa, x2 = 0.9511
  mass density: 634 ± 0.3 kg/m3
362.87 K, 6000 kPa, x2 = 0.9511
  mass density: 635.4 ± 0.3 kg/m3
362.87 K, 7000 kPa, x2 = 0.9511
  mass density: 636.8 ± 0.3 kg/m3
362.87 K, 8000 kPa, x2 = 0.9511
  mass density: 638.2 ± 0.3 kg/m3
362.87 K, 9000 kPa, x2 = 0.9511
  mass density: 639.5 ± 0.4 kg/m3
362.87 K, 10000 kPa, x2 = 0.9511
  mass density: 640.8 ± 0.4 kg/m3
362.87 K, 11000 kPa, x2 = 0.9511
  mass density: 642.1 ± 0.4 kg/m3
362.87 K, 12000 kPa, x2 = 0.9511
  mass density: 643.4 ± 0.4 kg/m3
362.87 K, 13000 kPa, x2 = 0.9511
  mass density: 644.6 ± 0.4 kg/m3
362.87 K, 14001 kPa, x2 = 0.9511
  mass density: 645.8 ± 0.4 kg/m3
362.87 K, 15001 kPa, x2 = 0.9511
  mass density: 647 ± 0.4 kg/m3
362.87 K, 16000 kPa, x2 = 0.9511
  mass density: 648.2 ± 0.4 kg/m3
362.87 K, 17001 kPa, x2 = 0.9511
  mass density: 649.3 ± 0.4 kg/m3
362.87 K, 18001 kPa, x2 = 0.9511
  mass density: 650.5 ± 0.4 kg/m3
362.87 K, 19000 kPa, x2 = 0.9511
  mass density: 651.6 ± 0.4 kg/m3
362.87 K, 20000 kPa, x2 = 0.9511
  mass density: 652.7 ± 0.5 kg/m3
362.87 K, 21001 kPa, x2 = 0.9511
  mass density: 653.8 ± 0.5 kg/m3
362.87 K, 22000 kPa, x2 = 0.9511
  mass density: 654.9 ± 0.5 kg/m3
362.87 K, 23001 kPa, x2 = 0.9511
  mass density: 655.9 ± 0.5 kg/m3
362.87 K, 24000 kPa, x2 = 0.9511
  mass density: 656.9 ± 0.5 kg/m3
362.87 K, 25000 kPa, x2 = 0.9511
  mass density: 658 ± 0.5 kg/m3
362.91 K, 1000 kPa, x2 = 0.7482
  mass density: 645.5 ± 0.3 kg/m3
362.91 K, 1023 kPa, x2 = 0.2346
  mass density: 678.2 ± 0.3 kg/m3
362.91 K, 2000 kPa, x2 = 0.7482
  mass density: 646.9 ± 0.3 kg/m3
362.91 K, 2024 kPa, x2 = 0.2346
  mass density: 679.4 ± 0.3 kg/m3
362.91 K, 3000 kPa, x2 = 0.7482
  mass density: 648.3 ± 0.3 kg/m3
362.91 K, 3026 kPa, x2 = 0.2346
  mass density: 680.6 ± 0.3 kg/m3

— the NIST ThermoML archive (doi:10.1021/je400055v)
